Experimental findings from patent publication US9221834B2 (Merck Sharp & Dohme Corp., priority 2010, dated 2015) are described below.

This assay has as its target T1, recombinant CETP (rCETP) (Homo sapiens, UniProt P11597).
T1 sequence (P11597 18-493): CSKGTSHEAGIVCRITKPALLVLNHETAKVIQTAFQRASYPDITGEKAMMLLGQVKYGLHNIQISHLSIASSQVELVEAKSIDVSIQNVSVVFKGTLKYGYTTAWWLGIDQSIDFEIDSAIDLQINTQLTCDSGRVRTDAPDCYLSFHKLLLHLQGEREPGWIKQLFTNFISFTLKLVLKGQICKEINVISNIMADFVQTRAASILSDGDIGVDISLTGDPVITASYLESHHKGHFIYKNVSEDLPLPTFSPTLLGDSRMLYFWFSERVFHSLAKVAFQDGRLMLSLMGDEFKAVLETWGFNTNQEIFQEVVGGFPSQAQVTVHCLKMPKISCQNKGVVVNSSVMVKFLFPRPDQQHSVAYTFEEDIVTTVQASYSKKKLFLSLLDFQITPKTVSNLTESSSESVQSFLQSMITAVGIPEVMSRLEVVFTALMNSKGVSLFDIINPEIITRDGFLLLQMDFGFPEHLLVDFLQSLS
As to the kind of experiment: RTA assay using recombinant CETP (2% RTA). In kind it is biochemical. The settings on record: RTA assay in 2% human serum; read-out: IC50. An outline of the steps:
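Compounds preincubated 1 h at 37 °C with assay cocktail (CETP buffer: 50 mM Tris pH 7.4, 100 mM NaCl, 1 mM EDTA; human HDL acceptor); transfer started with [3H]cholesteryl oleate- or [3H]triolein-labelled LDL, 60 min at 37 °C. LDL PEG-precipitated; supernatant counted by scintillation, blank-corrected; IC50 from 4-parameter sigmoidal fit of % inhibition vs DMSO control.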
The IC50 is the midpoint of a concentration-inhibition curve. For the molecule `COc1ccc(CCC(=O)O)cc1-c1c(C)cc(N2CC(F)(F)C2)nc1CN1C(=O)O[C@H](c2cc(C(F)(F)F)cc(C(F)(F)F)c2)[C@@H]1C` [Example 63], the IC50 was 5 nM.
Then `COC(=O)CC(C)(C)c1ccc(OC)c(-c2ccc(N3CCC3)nc2CN2C(=O)O[C@H](c3cc(F)cc(F)c3)[C@@H]2C)c1` [Example 15], with 159 nM.
Consider `COc1ccc([C@@H]2C[C@H]2C(=O)O)cc1-c1ccc(N2CC(F)(F)C2)nc1CN1C(=O)O[C@H](c2cc(C(F)(F)F)cc(C(F)(F)F)c2)[C@@H]1C` [Example 66], for which the IC50 stood at 8 nM.
On to `COc1ccc(-c2c(C)cc(C(=O)O)n2C)cc1-c1ccc(N2CCC2)nc1CN1C(=O)O[C@H](c2cc(C(F)(F)F)cc(C(F)(F)F)c2)[C@@H]1C` [Example 119], for which the IC50 is 5 nM.
Then `COc1cc2c(cc1-c1ccc(N3CCC3)nc1CN1C(=O)O[C@H](c3cccc(C(F)(F)F)c3)[C@@H]1C)[C@H](CC(=O)O)CC2` [Example 229], with 161 nM; and `COC(=O)c1ccc(-c2ccc(OC)c(-c3ccc(N4CCC4)nc3CN3C(=O)O[C@H](c4cc(C(F)(F)F)cc(C(F)(F)F)c4)[C@@H]3C)c2)o1` [Example 47, Methyl 5-{3-[6-azetidin-1-yl-2-({(4S,5R)-5-[3,5-bis(trifluoromethyl)phenyl]-4-methyl-2-oxo-1,3-oxazolidin-3-yl}methyl)pyridin-3-yl]-4-methoxyphenyl}-2-furoate], with 34 nM.
To `COc1ccc([C@H]2CC[C@H](C(=O)OC)CC2)cc1-c1ccc(N2CCC2)nc1CN1C(=O)O[C@H](c2cc(F)c(F)c(F)c2)[C@@H]1C` [Example 35] belongs 439 nM; to `COc1ccc(-c2csc(C(=O)O)c2OC)cc1-c1ccc(N2CCC2)nc1CN1C(=O)O[C@H](c2cc(C(F)(F)F)cc(C(F)(F)F)c2)[C@@H]1C` [Example 110], 44 nM.
Take `CCOC(=O)CCc1ccc(OC)c(-c2ccc(N3CCC3)nc2CN2C(=O)O[C@H](c3cccc(C)c3)[C@@H]2C)c1` [Example 199]: the IC50 was 237 nM.
`COC(=O)c1cnc(-c2ccc(OC)c(-c3ccc(N4CCC4)nc3CN3C(=O)O[C@H](c4cc(C(F)(F)F)cc(C(F)(F)F)c4)[C@@H]3C)c2)cn1` [Example 30]: the IC50 turned out to be 133 nM.
To `COc1ccc(CC(=O)O)cc1-c1c(C)cc(N2CCC2)nc1CN1C(=O)O[C@H](c2cc(C(F)(F)F)cc(C(F)(F)F)c2)[C@@H]1C` [Example 76] belongs 14 nM; to `COc1ccc([C@@H]2C[C@H]2C(=O)O)cc1-c1c(C)cc(N2CCC2)nc1CN1C(=O)O[C@H](c2cc(C(F)(F)F)cc(C(F)(F)F)c2)[C@@H]1C` [Example 68], 4 nM; to `COc1ccc(C2C[C@@H]2C(=O)O)cc1-c1cnc(N2CC(F)(F)C2)nc1CN1C(=O)O[C@H](c2cc(C(F)(F)F)cc(C(F)(F)F)c2)[C@@H]1C` (stereo partly drawn) [Example 163], 14 nM.
To `CCOC(=O)C[C@@H]1CCc2cc(OC)c(-c3cnc(N4CCC4)nc3CN3C(=O)O[C@H](c4cc(C(F)(F)F)cc(C(F)(F)F)c4)[C@@H]3C)cc21` [Example 126] belongs 134 nM; to `COC(=O)CC(C)(C)c1ccc(OC)c(-c2ccc(N3CCC3)nc2CN2C(=O)O[C@H](c3cccc(C)c3)[C@@H]2C)c1` [Example 203], 106 nM.
To `CCOC(=O)c1csc(-c2ccc(OC)c(-c3ccc(N4CCC4)nc3CN3C(=O)O[C@H](c4cc(C(F)(F)F)cc(C(F)(F)F)c4)[C@@H]3C)c2)n1` [Example 54] belongs 189 nM; to `COc1ccc([C@H]2C[C@@H](C(=O)OC)C2)cc1-c1ccc(N2CCC2)nc1CN1C(=O)O[C@H](c2cc(C(F)(F)F)cc(C(F)(F)F)c2)[C@@H]1C` [Example 23], 18 nM.
Turning to `COc1ccc(-c2csc(C(=O)O)c2)cc1-c1ccc(N2CCC2)nc1CN1C(=O)O[C@H](c2cc(C(F)(F)F)cc(C(F)(F)F)c2)[C@@H]1C` [Example 107], the IC50 worked out at 72 nM.
For the molecule `COc1cc2c(cc1-c1cnc(N3CC(F)(F)C3)nc1CN1C(=O)O[C@H](c3cc(C(F)(F)F)cc(C(F)(F)F)c3)[C@@H]1C)[C@H](CC(=O)O)CC2` [Example 159], the IC50 was found to be 55 nM.
For `CCOC(=O)[C@H]1C[C@@H]1c1ccc(OC)c(-c2ccc(N3CCC3)nc2CN2C(=O)O[C@H](c3cc(F)cc(F)c3)[C@@H]2C)c1` [Example 17], the IC50 was determined as 181 nM.
With `COc1ccc(CCC(=O)O)cc1-c1ccc(N2CCC2)nc1CN1C(=O)O[C@H](c2cccc(C)c2)[C@@H]1C` [Example 223], the half-inhibitory concentration (IC50) worked out at 289 nM.
With `COc1ccc([C@@H]2C[C@H]2C(=O)O)cc1-c1ccc(N2CCC2)nc1CN1C(=O)O[C@H](c2cc(C(F)(F)F)cc(C(F)(F)F)c2)[C@@H]1C` [Example 72], the IC50 was found to be 7 nM.
Turning to `COc1ccc([C@H]2CC[C@H](C(=O)O)CC2)cc1-c1ccc(N2CC(F)(F)C2)nc1CN1C(=O)O[C@H](c2cc(F)cc(C(F)(F)F)c2)[C@@H]1C` [Example 283, trans-4-{3-[6-(3,3-difluoroazetidin-1-yl)-2-({(4S,5R)-5-[3-fluoro-5-(trifluoromethyl)phenyl]-4-methyl-2-oxo-1,3-oxazolidin-3-yl}methyl)pyridin-3-yl]-4-methoxyphenyl}cyclohexanecarboxylic acid], the IC50 came out at 9 nM.
Consider `COc1ccc([C@H]2C[C@H](C(=O)OC)C2)cc1-c1ccc(N2CCC2)nc1CN1C(=O)O[C@H](c2cc(C(F)(F)F)cc(C(F)(F)F)c2)[C@@H]1C` [Example 24], for which the IC50 turned out to be 2 nM.
Turning to `COc1ccc([C@H]2CC[C@H](C(=O)OC)CC2)cc1-c1ccc(N2CCC2)nc1CN1C(=O)O[C@H](c2cccc(C)c2)[C@@H]1C` [Example 201], the IC50 is 166 nM.
For `CCOC(=O)[C@@H]1C[C@H]1c1ccc(OC)c(-c2ccc(N3CCC3)nc2CN2C(=O)O[C@H](c3cccc(C(F)(F)F)c3)[C@@H]2C)c1` [Example 207], the IC50 was 44 nM.
Then `COc1cc2c(cc1-c1ccc(N3CCC3)nc1CN1C(=O)O[C@H](c3cc(F)cc(F)c3)[C@@H]1C)[C@H](CC(=O)O)CC2` [Example 86], with 415 nM.
Then `COC(=O)[C@H]1CC[C@@H](c2ccc(OC)c(-c3ccc(N4CCC4)nc3CN3C(=O)O[C@H](c4cc(C(F)(F)F)cc(C(F)(F)F)c4)[C@@H]3C)c2)C1` (single isomer, unassigned) [Example 217], with 19 nM; and `COc1ccc(CC(C)(C)C(=O)O)cc1-c1ccc(N2CCC2)nc1CN1C(=O)O[C@H](c2cc(C)cc(C)c2)[C@@H]1C` [Example 227], with 65 nM.
Regarding `COc1ccc(CO)cc1-c1ccc(N2CCC2)nc1CN1C(=O)O[C@H](c2cc(C(F)(F)F)cc(C(F)(F)F)c2)[C@@H]1C` [Example 258], the IC50 is 7 nM.
To `COc1ccc(-n2ncc(C(=O)O)c2C(F)(F)F)cc1-c1c(C)cc(N2CCC2)nc1CN1C(=O)O[C@H](c2cc(C(F)(F)F)cc(C(F)(F)F)c2)[C@@H]1C` [Example 285] belongs 4 nM; to `C[C@H]1[C@@H](c2cc(C(F)(F)F)cc(C(F)(F)F)c2)OC(=O)N1Cc1nc(N2CCC2)ccc1-c1cc(CCC(=O)O)ccc1OC1CC1` [Example 248], 19 nM; to `COc1ccc(-c2sc(C(=O)O)c(C)c2C)cc1-c1ccc(N2CCC2)nc1CN1C(=O)O[C@H](c2cc(C(F)(F)F)cc(C(F)(F)F)c2)[C@@H]1C` [Example 111], 5 nM.
In the case of `COC(=O)c1ccc(-c2cc(-c3ccc(N4CCC4)nc3CN3C(=O)O[C@H](c4cc(F)cc(F)c4)[C@@H]3C)c(OC)cc2F)c(C)c1` [Example 21], the IC50 worked out at 22 nM.
As to `COC(=O)CC(C)(C)c1ccc(OC)c(-c2ccc(N3CCC3)nc2CN2C(=O)O[C@H](c3cc(C(F)(F)F)cc(C(F)(F)F)c3)[C@@H]2C)c1` [Example 7], the 50% inhibitory concentration (IC50) was determined as 12 nM.
As for `COc1ccc(-c2sc(C(=O)O)cc2C)cc1-c1ccc(N2CCC2)nc1CN1C(=O)O[C@H](c2cc(C(F)(F)F)cc(C(F)(F)F)c2)[C@@H]1C` [Example 106], the IC50 stood at 12 nM.
To `COc1ccc(-c2ccc(C(=O)O)cc2C)cc1-c1ccc(N2CCC2)nc1CN1C(=O)O[C@H](c2cccc(C)c2)[C@@H]1C` [Example 237] belongs 10 nM.
For the molecule `CCOC(=O)[C@@H]1C[C@H]1c1ccc(CC)c(-c2ccc(N3CCC3)nc2CN2C(=O)O[C@H](c3cc(C(F)(F)F)cc(C(F)(F)F)c3)[C@@H]2C)c1` [Example 22], the IC50 was 11 nM.
Regarding `COc1ccc(CCC(=O)O)cc1-c1ccc(N2CCCC2)nc1CN1C(=O)O[C@H](c2cc(C(F)(F)F)cc(C(F)(F)F)c2)[C@@H]1C` [Example 62], the IC50 was found to be 49 nM.
To `COc1ccc(CC(C)(C)C(=O)O)cc1-c1ccc(N2CCC2)nc1CN1C(=O)O[C@H](c2cccc(C(F)(F)F)c2)[C@@H]1C` [Example 221] belongs 145 nM.
Then `COc1ccc(C2CCC(O)C2)cc1-c1ccc(N2CCC2)nc1CN1C(=O)O[C@H](c2cc(C(F)(F)F)cc(C(F)(F)F)c2)[C@@H]1C` (mixture of isomers) [Example 263], with 5 nM.
To `COc1ccc(-c2ncc(C(=O)O)s2)cc1-c1ccc(N2CCC2)nc1CN1C(=O)O[C@H](c2cc(C(F)(F)F)cc(C(F)(F)F)c2)[C@@H]1C` [Example 114] belongs 50 nM.
